The subject of data set [1] is T. gondii RH strain tachyzoites. The data set is described as follows: Transmission electron microscopy of intracellular tachyzoites in Vero cells. In kind it is cell-based, Toxoplasma gondii RH strain. Conditions: infected Vero cells treated with the IC50 of each compound for 24 h. On the procedure: After confluence of Vero cells in four T-25 culture flasks, T. gondii RH strain tachyzoites, suspended in 5 ml of RPMI, and were added to each flasks in a ratio of 5:1 parasite-host cell (Diab and El-Bahy [2008]). Flasks were incubated for 2 h. After that, the cells were washed twice with culture media to remove extracellular parasites. The cells in culture flasks were incubated in 5 ml of culture media for 24 h at 37 °C in a 5% CO2 (Carvalho and De Melo [2010b]). […] For TEM (Jeol JSM-1400), trypsinization was followed by centrifugation at 2000g for 10 min, and the resulting pellet was fixed in buffered glutaraldehyde-phosphate 2.5% and stored at 4 °C until used (Shaw et al. [2002]). Then, the fixed specimens were washed thoroughly with Millonig phosphate buffer and post-fixed with buffered osmium tetroxide-phosphate. Following that, they were dehydrated in ascending concentrations of ethyl alcohol followed by embedding in epoxy resin. Finally, ultrathin sections were doubly stained with uranyl acetate and lead citrate trihydrate stains and examined under TEM (Winey et al. [2014]).

Another data set has as its system Vero cells. Briefly: Cytotoxicity test (MTT) on Vero cells. The data set is classed as cell-based, African green monkey. The following applies: 24 h incubation. As to the method:
(§1) Vero cells were seeded at a density of 1×10^4 cells/well in 96-well plate and incubated for 24 h at 37 °C in a 5% CO2 incubator. […] A stock solution in DMSO was initially prepared then diluted 100 times with culture media to obtain the highest concentration, then it was serially diluted. Three replicates for each drug concentration were performed. Cell viability was assayed by MTT method where 20 μl of 5 mg/ml MTT (Sigma, USA) was added to each well, and the plate was incubated at 37 °C for 3 h. Then, MTT solution was removed, 100 μl DMSO was added, and the absorbance of each well was measured using a Benchmark Microplate Reader (Bio Rad). […] [2021]; Montazeri et al. [2020]). Experiments were repeated three times. Vero cell growth suppression (%) was estimated using the following equation: […]×100 using CompuSyn software (version 1) (Chou [2006]; Chou and Talaly [1977]).

Another data set concerns T. gondii tachyzoites. The data set is described as follows: Effects of sulfa drugs on intracellular Toxoplasma gondii in Vero cells (MTT). In kind it is cell-based, Toxoplasma gondii RH strain. Conditions: 24 h treatment. As to the method:
For this purpose, Vero cells were cultured in 96-well plates (1×10^4 cells/well) for 24 h in RPMI 1640 medium supplemented with 10% inactivated FBS at 37 °C and 5% CO2. Next, the cells were infected with T. gondii tachyzoites (parasite: cell ratio = 10:1). Four hours following the inoculation, the cells were washed twice with RPMI to remove any non-adherent parasites. […] Cell viability was assayed by MTT method. Twenty microliters of 5 mg/ml MTT (Sigma, USA) was added to each well and the plate was incubated at 37 °C for 3 h. Then, MTT solution was removed, 100 μl DMSO was added, and the absorbance of each well was measured using a Benchmark Microplate Reader (Bio Rad). The optical absorbance was measured at 570-nm wavelength. Growth inhibition (GI) was calculated as in the following equation: GI%=At-Ac/Ac×100
where At and Ac are the absorbance of treated cells and control, respectively. […] Selectivity index (SI) of the samples was calculated using the IC50 and the host-cell cytotoxicity profiles CC50 (SI = CC50/IC50) (Montazeri et al. [2020]) using CompuSyn software (version 1) (Chou [2006]; Chou and Talaly [1977]).

Data set [2] can be described thus: Cytotoxicity test (MTT) on Vero cells. The data set is classed as cell-based, African green monkey. The following applies: African green monkey, 24 h incubation. On the procedure:
as §1

For the next data set, the system named is tachyzoites. The following applies: ref Portes et al. [2018]; cited from earlier work.

For the compound “4-(4-(hydroxymethyl)-1H-1,2,3-triazol-1-yl)-N-(pyridin-2-yl)benzenesulfonamide [3e]”, the “Ultrastructural alterations of intracellular tachyzoites (TEM)” value in data set [1] was “large PVs containing multiple vacuolated tachyzoites without nuclei or organelles”. For the same compound, it took 510 ± 22 nM to reach half-maximal cytotoxicity in the data set on Vero cells (CC50). The compound further gave an IC50 in the data set on T. gondii tachyzoites of 53.3 ± 10.5 nM.

`Nc1ccc(S(=O)(=O)Nc2ncccn2)cc1` [Sulfadiazine, sulfadiazine]: it took 1390 ± 100 nM to reach half-maximal cytotoxicity in data set [2] (CC50 at 24 h). Further, the “Ultrastructural alterations in tachyzoites after treatment” value in the data set with tachyzoites is “no significant ultrastructural alterations”. In addition, in the data set with T. gondii tachyzoites (Toxoplasma gondii), 185 ± 18.4 nM corresponded to half-maximal inhibition (IC50).

As a reminder, the CC50 is the concentration at which the toxic effect on the cells reaches its halfway point. A high value points to better tolerance by the cells. The term IC50 denotes the concentration that inhibits the measured activity by half. Read a low IC50 as greater potency in that assay.

The values are drawn from publication PMC10495491 (Parasitology Research, 2023).
